Source: US12077503B2, “Substituted cyclic amides and their use as herbicides” (FMC CORPORATION, priority 2015, dated 2024)

Legend:
Format in all cases: in vivo
[1] = test system: redroot pigweed (Amaranthus retroflexus); assay: Test G Pre-Emergence Protocol; conditions: Amaranthus retroflexus, pre-emergence, 312 h, evaluated after 13 days; for pest or weed control at 15.625 g/ha: 15.625 g ai/ha; for pest or weed control at 15.625 g/ha / pest or weed control at 250 g/ha: read-out: Pigweed, Redroot damage rating (100=total damage to plant; 0=no damage to plant); for pest or weed control at 62.5 g/ha: 62.5 g ai/ha, 100=total damage to plant, 0=no damage to plant, read-out: plant damage rating, Pigweed, Redroot; for pest or weed control at 250 g/ha: 250 g ai/ha
Procedure, shortened: (§1)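 One day after sowing, pots are treated with a spray of test compound formulated in acetone/water 50:50 plus 0.5% Tween 20, giving 15.625, 62.5 or 250 g/ha. Evaluation on a 0–100 damage scale follows 13 days of glasshouse growth.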

[2] = test system: ivy-leaved morning glory (Ipomoea hederacea); assay: Test G Pre-Emergence Protocol; conditions: Ipomoea, pre-emergence, 312 h, evaluated after 13 days; for pest or weed control at 15.625 g/ha: 15.625 g ai/ha, read-out: Morning-glory, Ivy-leaved damage rating (100=total damage to plant; 0=no damage to plant); for pest or weed control at 62.5 g/ha: 62.5 g ai/ha, 100=total damage to plant, 0=no damage to plant, read-out: plant damage rating, Morningglory, Ivy-leaved; for pest or weed control at 250 g/ha: 250 g ai/ha, read-out: Morningglory, Ivy-leaved damage rating (100=total damage to plant; 0=no damage to plant)
Procedure, shortened: as §1

[3] = test system: barnyardgrass (Echinochloa crus-galli); assay: Test G Pre-Emergence Protocol; conditions: Echinochloa crus-galli, pre-emergence, 312 h, evaluated after 13 days; for pest or weed control at 15.625 g/ha: 15.625 g ai/ha, read-out: Barnyard grass damage rating (100=total damage to plant; 0=no damage to plant); for pest or weed control at 62.5 g/ha: 62.5 g ai/ha, 100=total damage to plant, 0=no damage to plant, read-out: plant damage rating, Barnyardgrass; for pest or weed control at 250 g/ha: 250 g ai/ha, read-out: Barnyardgrass damage rating (100=total damage to plant; 0=no damage to plant)
Procedure, shortened: as §1

[4] = test system: velvetleaf (Abutilon theophrasti); assay: Test G Pre-Emergence Protocol; conditions: Abutilon theophrasti, pre-emergence, 312 h, evaluated after 13 days; for pest or weed control at 15.625 g/ha: 15.625 g ai/ha; for pest or weed control at 15.625 g/ha / pest or weed control at 250 g/ha: read-out: Velvetleaf damage rating (100=total damage to plant; 0=no damage to plant); for pest or weed control at 62.5 g/ha: 62.5 g ai/ha, 100=total damage to plant, 0=no damage to plant, read-out: plant damage rating, Velvetleaf; for pest or weed control at 250 g/ha: 250 g ai/ha
Procedure, shortened: as §1

[5] = test system: giant foxtail (Setaria faberi); assay: Test G Pre-Emergence Protocol; conditions: Setaria faberi, pre-emergence, 312 h, evaluated after 13 days; for pest or weed control at 15.625 g/ha: 15.625 g ai/ha; for pest or weed control at 15.625 g/ha / pest or weed control at 250 g/ha: read-out: Foxtail, Giant damage rating (100=total damage to plant; 0=no damage to plant); for pest or weed control at 62.5 g/ha: 62.5 g ai/ha, 100=total damage to plant, 0=no damage to plant, read-out: plant damage rating, Foxtail, Giant; for pest or weed control at 250 g/ha: 250 g ai/ha
Procedure, shortened: as §1

corn (Zea mays) [6] = assay: Test G Pre-Emergence Protocol; conditions: Zea mays, pre-emergence, 312 h, evaluated after 13 days; for plant injury at 15.625 g/ha: 15.625 g ai/ha; for plant injury at 15.625 g/ha / plant injury at 250 g/ha: read-out: Corn damage rating (100=total damage to plant; 0=no damage to plant); for plant injury at 62.5 g/ha: 62.5 g ai/ha, 100=total damage to plant, 0=no damage to plant, read-out: plant damage rating, Corn; for plant injury at 250 g/ha: 250 g ai/ha
Procedure, shortened: as §1

[7] = test system: redroot pigweed (Amaranthus retroflexus); assay: Test G Post-Emergence Protocol; conditions: Amaranthus retroflexus, post-emergence, 312 h; for pest or weed control at 15.625 g/ha: 15.625 g ai/ha, evaluated after 13 days (100=total damage to plant; 0=no damage to plant), read-out: Pigweed, Redroot damage rating; for pest or weed control at 62.5 g/ha: 62.5 g ai/ha, read-out: Pigweed, Redroot damage rating (100=total damage to plant; 0=no damage to plant); for pest or weed control at 62.5 g/ha / pest or weed control at 250 g/ha: evaluated after 13 days; for pest or weed control at 250 g/ha: 250 g ai/ha, read-out: damage to plant, Pigweed, Redroot (100=total damage to plant; 0=no damage to plant)
Procedure, shortened: (§2)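 Values are percent visual injury at 13 days after treatment (0 none, 100 total). Treatment was a post-emergence spray at 15.625, 62.5 or 250 g/ha on 8-day-old pot plants kept at 24/16 °C.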

[8] = test system: ivy-leaved morning glory (Ipomoea hederacea); assay: Test G Post-Emergence Protocol; conditions: Ipomoea, post-emergence, 312 h; for pest or weed control at 15.625 g/ha: 15.625 g ai/ha, evaluated after 13 days (100=total damage to plant; 0=no damage to plant), read-out: Morningglory, Ivy-leaved damage rating; for pest or weed control at 62.5 g/ha: 62.5 g ai/ha, read-out: Morningglory, Ivy-leaved damage rating (100=total damage to plant; 0=no damage to plant); for pest or weed control at 62.5 g/ha / pest or weed control at 250 g/ha: evaluated after 13 days; for pest or weed control at 250 g/ha: 250 g ai/ha, read-out: damage to plant, Morningglory, Ivy-leaved (100=total damage to plant; 0=no damage to plant)
Procedure, shortened: as §2

[9] = test system: barnyardgrass (Echinochloa crus-galli); assay: Test G Post-Emergence Protocol; conditions: Echinochloa crus-galli, post-emergence, 312 h; for pest or weed control at 15.625 g/ha: 15.625 g ai/ha, evaluated after 13 days (100=total damage to plant; 0=no damage to plant), read-out: Barnyardgrass damage rating; for pest or weed control at 62.5 g/ha: 62.5 g ai/ha, read-out: Barnyardgrass damage rating (100=total damage to plant; 0=no damage to plant); for pest or weed control at 62.5 g/ha / pest or weed control at 250 g/ha: evaluated after 13 days; for pest or weed control at 250 g/ha: 250 g ai/ha, read-out: damage to plant, Barnyardgrass (100=total damage to plant; 0=no damage to plant)
Procedure, shortened: as §2

[10] = test system: velvetleaf (Abutilon theophrasti); assay: Test G Post-Emergence Protocol; conditions: Abutilon theophrasti, post-emergence, 312 h; for pest or weed control at 15.625 g/ha: 15.625 g ai/ha, evaluated after 13 days (100=total damage to plant; 0=no damage to plant), read-out: Velvetleaf damage rating; for pest or weed control at 62.5 g/ha: 62.5 g ai/ha, read-out: Velvetleaf damage rating (100=total damage to plant; 0=no damage to plant); for pest or weed control at 62.5 g/ha / pest or weed control at 250 g/ha: evaluated after 13 days; for pest or weed control at 250 g/ha: 250 g ai/ha, read-out: damage to plant, Velvetleaf (100=total damage to plant; 0=no damage to plant)
Procedure, shortened: as §2

[11] = test system: giant foxtail (Setaria faberi); assay: Test G Post-Emergence Protocol; conditions: Setaria faberi, post-emergence, 312 h; for pest or weed control at 15.625 g/ha: 15.625 g ai/ha, evaluated after 13 days (100=total damage to plant; 0=no damage to plant), read-out: Foxtail, Giant damage rating; for pest or weed control at 62.5 g/ha: 62.5 g ai/ha, read-out: Foxtail, Giant damage rating (100=total damage to plant; 0=no damage to plant); for pest or weed control at 62.5 g/ha / pest or weed control at 250 g/ha: evaluated after 13 days; for pest or weed control at 250 g/ha: 250 g ai/ha, read-out: damage to plant, Foxtail, Giant (100=total damage to plant; 0=no damage to plant)
Procedure, shortened: as §2

corn (Zea mays) [12] = assay: Test G Post-Emergence Protocol; conditions: Zea mays, post-emergence, 312 h; for plant injury at 15.625 g/ha: 15.625 g ai/ha, evaluated after 13 days (100=total damage to plant; 0=no damage to plant), read-out: Corn damage rating; for plant injury at 62.5 g/ha: 62.5 g ai/ha, read-out: Corn damage rating (100=total damage to plant; 0=no damage to plant); for plant injury at 62.5 g/ha / plant injury at 250 g/ha: evaluated after 13 days; for plant injury at 250 g/ha: 250 g ai/ha, read-out: damage to plant, Corn (100=total damage to plant; 0=no damage to plant)
Procedure, shortened: as §2

| Structure (SMILES) | pest or weed control at 15.625 g/ha [1] [%] | pest or weed control at 62.5 g/ha [1] [%] | pest or weed control at 250 g/ha [1] [%] | pest or weed control at 15.625 g/ha [2] [%] | pest or weed control at 62.5 g/ha [2] [%] | pest or weed control at 250 g/ha [2] [%] | pest or weed control at 15.625 g/ha [3] [%] | pest or weed control at 62.5 g/ha [3] [%] | pest or weed control at 250 g/ha [3] [%] | pest or weed control at 15.625 g/ha [4] [%] | pest or weed control at 62.5 g/ha [4] [%] | pest or weed control at 250 g/ha [4] [%] | pest or weed control at 15.625 g/ha [5] [%] | pest or weed control at 62.5 g/ha [5] [%] | pest or weed control at 250 g/ha [5] [%] | plant injury at 15.625 g/ha (corn (Zea mays) [6]) [%] | plant injury at 62.5 g/ha (corn (Zea mays) [6]) [%] | plant injury at 250 g/ha (corn (Zea mays) [6]) [%] | pest or weed control at 15.625 g/ha [7] [%] | pest or weed control at 62.5 g/ha [7] [%] | further results |
| --- | --- | --- | --- | --- | --- | --- | --- | --- | --- | --- | --- | --- | --- | --- | --- | --- | --- | --- | --- | --- | --- |
| CN1C[C@@H](c2ccc(C(F)(F)F)cc2)[C@H](C(=O)Nc2nccc(=O)[nH]2)C1=O (racemic) [Compound 1622] | 0 | 0 | 0 | 0 | 0 | 0 | 0 | 0 | 0 | 0 | 0 | 0 | 0 | 0 | 0 | 0 | 0 | 0 | 0 | 0 | pest or weed control at 250 g/ha [7]: 0%; pest or weed control at 15.625 g/ha [8]: 0%; pest or weed control at 62.5 g/ha [8]: 0%; pest or weed control at 250 g/ha [8]: 0%; pest or weed control at 15.625 g/ha [9]: 0%; pest or weed control at 62.5 g/ha [9]: 0%; pest or weed control at 250 g/ha [9]: 0%; pest or weed control at 15.625 g/ha [10]: 0%; pest or weed control at 62.5 g/ha [10]: 0%; pest or weed control at 250 g/ha [10]: 0%; pest or weed control at 15.625 g/ha [11]: 0%; pest or weed control at 62.5 g/ha [11]: 0%; pest or weed control at 250 g/ha [11]: 0%; plant injury at 15.625 g/ha (corn (Zea mays) [12]): 0%; plant injury at 62.5 g/ha (corn (Zea mays) [12]): 0%; plant injury at 250 g/ha (corn (Zea mays) [12]): 0% |
| CN1C[C@@H](c2ccc(C(F)(F)F)cc2)[C@H](C(=O)Nc2cccc(F)c2)C1=O (racemic) [Compound 1623] | 10 | 10 | 50 | 10 | 10 | 10 | 10 | 30 | 60 | 10 | 0 | 50 | 20 | 60 | 80 | 10 | 0 | 10 | 10 | 20 | pest or weed control at 250 g/ha [7]: 60%; pest or weed control at 15.625 g/ha [8]: 30%; pest or weed control at 62.5 g/ha [8]: 30%; pest or weed control at 250 g/ha [8]: 60%; pest or weed control at 15.625 g/ha [9]: 10%; pest or weed control at 62.5 g/ha [9]: 70%; pest or weed control at 250 g/ha [9]: 80%; pest or weed control at 15.625 g/ha [10]: 0%; pest or weed control at 62.5 g/ha [10]: 0%; pest or weed control at 250 g/ha [10]: 20%; pest or weed control at 15.625 g/ha [11]: 30%; pest or weed control at 62.5 g/ha [11]: 70%; pest or weed control at 250 g/ha [11]: 80%; plant injury at 15.625 g/ha (corn (Zea mays) [12]): 0%; plant injury at 62.5 g/ha (corn (Zea mays) [12]): 0%; plant injury at 250 g/ha (corn (Zea mays) [12]): 30% |
